From US20160304556A1, “[…] ACTIVE COMPOUNDS AND THEIR METHODS OF USE” (AGIOS PHARMACEUTICALS, INC, priority 2012, published 2016)

Columns and labels:
IDH1 R132C = IDH1 R132C (Homo sapiens, UniProt O75874, R132C); assay: In vitro NADPH depletion assay for IDH1m R132C inhibitors; format: biochemical; settings: enzyme, diaphorase/resazurin readout, read-out: IDH R132C IC50
Procedure: (§1) A test compound is prepared as 10 mM stock in DMSO and diluted to 50× final concentration in DMSO, for a 50 μl reaction mixture. IDH enzyme activity converting alpha-ketoglutarate to 2-hydroxyglutaric acid is measured using a NADPH depletion assay. In the assay the remaining cofactor is measured at the end of the reaction with the addition of a catalytic excess of diaphorase and resazurin, to generate a fluorescent signal in proportion to the amount of NADPH remaining. IDH1-R132 homodimer enzyme is diluted to […] in 40 μl of Assay Buffer(150 mM NaCl, 20 mM Tris-Cl pH 7.5, 10 mM MgCl2, 0.05% BSA, 2 mM b-mercaptoethanol); 1 μl of test compound dilution in DMSO is added and the mixture is incubated for 60 minutes at room temperature. The reaction is started with the addition of 10 μl of Substrate Mix ([…], 5 mM alpha-ketoglutarate, in Assay Buffer) and the mixture is incubated for 90 minutes at room temperature. The reaction is terminated with the addition of 25 μl of Detection Buffer (36 μg/ml diaphorase, […], in 1× Assay Buffer), and is incubated for 1 minute before reading on a SpectraMax platereader at Ex544/Em590.
Compounds are assayed for their activity against IDH1 R132C following the same assay as above with the following modifications: Assay Buffer is (50 mM potassium phosphate, pH 6.5; 40 mM sodium carbonate, 5 mM MgCl2, 10% glycerol, 2 mM b-mercaptoethanol, and 0.03% BSA). The concentration of NADPH and alpha-ketoglutarate in the Substrate Buffer is 20 μM and 1 mM, respectively.
(§2) Representative compounds of formula I set forth in Table 1 were tested in this assay and the results are set forth below in Table 3.

IDH1 R132H = IDH1 R132H (Homo sapiens, UniProt O75874, R132H); assay: In vitro NADPH depletion assay for IDH1m R132H inhibitors; format: biochemical; settings: enzyme, diaphorase/resazurin readout, read-out: IDH R132H IC50
Chain of IDH1 R132H (O75874 whole entry R132H): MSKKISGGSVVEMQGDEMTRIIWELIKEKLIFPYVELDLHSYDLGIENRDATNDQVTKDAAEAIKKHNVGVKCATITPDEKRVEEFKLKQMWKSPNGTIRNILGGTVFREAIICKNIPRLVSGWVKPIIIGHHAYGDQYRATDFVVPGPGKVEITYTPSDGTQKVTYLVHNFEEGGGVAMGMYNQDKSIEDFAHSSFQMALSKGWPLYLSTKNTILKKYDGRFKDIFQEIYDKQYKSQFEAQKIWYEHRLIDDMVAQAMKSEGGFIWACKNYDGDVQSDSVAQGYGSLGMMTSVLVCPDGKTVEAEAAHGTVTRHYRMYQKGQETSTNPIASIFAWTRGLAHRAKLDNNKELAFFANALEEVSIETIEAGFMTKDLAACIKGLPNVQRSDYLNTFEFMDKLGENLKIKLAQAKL
Procedure: as §1, §2

HT1080 cells = assay: Cellular assay, inhibition of 2-HG production (LC-MS) in HT1080 cells; format: cell-based; settings: Homo sapiens, HT-1080, 48 hours, LC-MS of media
Procedure: Cells (HT1080 or U87MG) are grown in T125 flasks in DMEM containing 10% FBS, 1× penicillin/streptomycin and 500 ug/mL G418 (present in U87MG cells only). They are harvested by trypsin and seeded into 96 well white bottom plates at a density of 5000 cell/well in 100 μl/well in DMEM with 10% FBS. No cells are placed in columns 1 and 12. Cells are incubated overnight at 37° C. in 5% CO2. The next day test compounds are made up at 2× the final concentration and 100 μl are added to each cell well. The final concentration of DMSO is 0.2% and the DMSO control wells are plated in row G. The plates are then placed in the incubator for 48 hours. At 48 hours, 100 μl of media is removed from each well and analyzed by LC-MS for 2-HG concentrations. The cell plate is placed back in the incubator for another 24 hours. At 72 hours post compound addition, 10 mL/plate of Promega Cell Titer Glo reagent is thawed and mixed. The cell plate is removed from the incubator and allowed to equilibrate to room temperature. Then 100 μl of Promega Cell Titer Glo reagent is added to each well of media. The cell plate is then placed on an orbital shaker for 10 minutes and then allowed to sit at room temperature for 20 minutes. The plate is then read for luminescence with an integration time of 500 ms.
The IC50 for inhibition of 2-HG production (concentration of test compound to reduce 2HG production by 50% compared to control) in these two cell lines for various compounds of formula I is set forth in Table 2 above.

Chain of IDH1 R132C (O75874 whole entry R132C): as the sequence (O75874 whole entry R132H) above, with H132C counted along it

## COC(=O)NCC(=O)N(c1cccc(F)c1)[C@H](C(=O)N[C@H]1CCCC(F)(F)C1)c1ccccc1Cl (single isomer, unassigned) [Compound 94, methyl 2-((1-(2-chlorophenyl)-2-(3,3-difluorocyclohexylamino)-2-oxoethyl) (3-fluoro-phenyl)amino)-2-oxoethylcarbamate]
IDH1 R132C
  IC50: 100 to 500 nM
IDH1 R132H
  IC50: 100 to 500 nM

## COC(=O)NCC(=O)N(c1cccc(F)c1)[C@H](C(=O)N[C@@H]1CCCC(F)(F)C1)c1ccccc1Cl (single isomer, unassigned) [Compound 95, methyl 2-((1-(2-chlorophenyl)-2-(3,3-difluorocyclohexylamino)-2-oxoethyl) (3-fluoro-phenyl)amino)-2-oxoethylcarbamate]
IDH1 R132C
  IC50: 100 to 500 nM
IDH1 R132H
  IC50: 100 to 500 nM

## O=C(NC1CCC(F)(F)CC1)C(c1ccccc1Cl)N(C(=O)Cn1cnc(Cl)c1Cl)c1cccc(F)c1 (stereo not shown) [Compound 33]
IDH1 R132H
  IC50: ≤ 100 nM
HT1080 cells
  IC50: 100 to 500 nM

## O=C(NC1CC(F)(F)C1)C(c1ccccc1Cl)N(C(=O)Cn1cncn1)c1cccc(F)c1 (stereo not shown) [Compound 36]
IDH1 R132C
  IC50: 1000 to 2000 nM
IDH1 R132H
  IC50: 100 to 500 nM

## COC(=O)N1CCC[C@H]1C(=O)N(c1cccc(F)c1)[C@H](C(=O)NC1CC(F)(F)C1)c1ccccc1Cl [Compound 42, (S)-methyl 2-(((S)-1-(2-chlorophenyl)-2-((3,3-difluorocyclobutyl)amino)-2-oxoethyl)(3-fluorophenyl)carbamoyl)pyrrolidine-1-carboxylate]
IDH1 R132H
  IC50: ≤ 100 nM
HT1080 cells
  IC50: 100 to 500 nM

## O=C(NC1CCC(F)(F)CC1)C(c1ccccc1Cl)N(C(=O)Cn1cncn1)c1cccc(F)c1 (stereo not shown) [Compound 45]
IDH1 R132H
  IC50: 100 to 500 nM
HT1080 cells
  IC50: 1000 to 2000 nM

## O=C(NC1CCC(F)(F)CC1)C(c1ccccc1Cl)N(C(=O)Cn1ccnn1)c1cccc(F)c1 (stereo not shown) [Compound 46]
IDH1 R132H
  IC50: 100 to 500 nM
HT1080 cells
  IC50: 1000 to 2000 nM

## O=C(NC1CC(F)(F)C1)C(c1ccccc1Cl)N(C(=O)CNc1cccnc1F)c1cccc(F)c1 (stereo not shown) [Compound 47]
IDH1 R132H
  IC50: ≤ 100 nM
HT1080 cells
  IC50: 100 to 500 nM

## O=C(NC1CCC(F)(F)CC1)C(c1ccccc1Cl)N(C(=O)Cn1cnnn1)c1cccc(F)c1 (stereo not shown) [Compound 49]
IDH1 R132C
  IC50: 100 to 500 nM
IDH1 R132H
  IC50: 100 to 500 nM

## COC(=O)N1C[C@H](O)C[C@H]1C(=O)N(c1cccc(F)c1)[C@H](C(=O)NC1CC(F)(F)C1)c1ccccc1Cl [Compound 51]
IDH1 R132H
  IC50: ≤ 100 nM
HT1080 cells
  IC50: 500 to 1000 nM

## COC(=O)N1C[C@@H](O)C[C@H]1C(=O)N(c1cccc(F)c1)[C@H](C(=O)NC1CC(F)(F)C1)c1ccccc1Cl [Compound 52]
IDH1 R132H
  IC50: ≤ 100 nM
HT1080 cells
  IC50: 500 to 1000 nM

## COC(=O)N1CCOC[C@H]1C(=O)N(c1cccc(F)c1)[C@H](C(=O)NC1CC(F)(F)C1)c1ccccc1Cl [Compound 53]
IDH1 R132H
  IC50: ≤ 100 nM
HT1080 cells
  IC50: 100 to 500 nM

## COC(=O)N1COC[C@H]1C(=O)N(c1cccc(F)c1)[C@H](C(=O)NC1CC(F)(F)C1)c1ccccc1Cl [Compound 54]
IDH1 R132H
  IC50: ≤ 100 nM
HT1080 cells
  IC50: 500 to 1000 nM

## COC(=O)N1C[C@H](F)C[C@H]1C(=O)N(c1cccc(F)c1)[C@H](C(=O)NC1CC(F)(F)C1)c1ccccc1Cl [Compound 55, (2S,4R)-methyl 2-(((S)-1-(2-chlorophenyl)-2-((3,3-difluorocyclo-butyl)amino)-2-oxoethyl)(3-fluorophenyl)carbamoyl)-4-fluoropyrrolidine-1-carboxylate]
IDH1 R132H
  IC50: ≤ 100 nM
HT1080 cells
  IC50: 500 to 1000 nM

## COC(=O)N[C@@H](CO)C(=O)N(c1cccc(F)c1)C(C(=O)NC1CC(F)(F)C1)c1ccccc1Cl (stereo partly shown) [Compound 56]
IDH1 R132C
  IC50: 500 to 1000 nM
IDH1 R132H
  IC50: 100 to 500 nM

## COC(=O)N1CCC[C@H]1C(=O)N(c1cccc(S(N)(=O)=O)c1)[C@H](C(=O)NC1CCC(F)(F)CC1)c1ccccc1Cl [Compound 57]
IDH1 R132H
  IC50: 100 to 500 nM
HT1080 cells
  IC50: 500 to 1000 nM

## COC(=O)N1CCNC[C@H]1C(=O)N(c1cccc(F)c1)[C@H](C(=O)NC1CC(F)(F)C1)c1ccccc1Cl [Compound 62, (S)-Methyl 2-(((S)-1-(2-chlorophenyl)-2-(3,3-difluorocyclobutylamino)-2-oxoethyl) -(3-fluoro-phenyl)carbamoyl)piperazine-1-carboxylate]
IDH1 R132H
  IC50: 100 to 500 nM
HT1080 cells
  IC50: 1000 to 2000 nM

## COC(=O)N1C[C@@H](OC)C[C@H]1C(=O)N(c1cccc(F)c1)[C@H](C(=O)NC1CC(F)(F)C1)c1ccccc1Cl [Compound 63]
IDH1 R132H
  IC50: ≤ 100 nM
HT1080 cells
  IC50: 1000 to 2000 nM

## O=C(NC1CC(F)(F)C1)C(c1ccccc1Cl)N(C(=O)Cc1ccncc1)c1cccc(F)c1 (stereo not shown) [Compound 64]
IDH1 R132H
  IC50: ≤ 100 nM
HT1080 cells
  IC50: 100 to 500 nM

## COC(=O)N1C[C@H](N)C[C@H]1C(=O)N(c1cccc(F)c1)[C@H](C(=O)NC1CC(F)(F)C1)c1ccccc1Cl [Compound 65]
IDH1 R132C
  IC50: 500 to 1000 nM
IDH1 R132H
  IC50: 100 to 500 nM

## COC(=O)N1CCN(C(C)=O)C[C@H]1C(=O)N(c1cccc(F)c1)[C@@H](C(=O)NC1CC(F)(F)C1)c1ccccc1Cl [Compound 67, (S)-Methyl 4-acetyl-2-(((R)-1-(2-chlorophenyl)-2-(3,3-difluorocyclobutylamino)-2-oxoethyl)(3-fluorophenyl)carbamoyl)piperazine-1-carboxylate]
IDH1 R132C
  IC50: 100 to 500 nM
IDH1 R132H
  IC50: 100 to 500 nM

## O=C(NC1CC(F)(F)C1)C(c1ccccc1Cl)N(C(=O)Cn1ccnc1CO)c1cccc(F)c1 (stereo not shown) [Compound 72]
IDH1 R132C
  IC50: 500 to 1000 nM
IDH1 R132H
  IC50: 100 to 500 nM

## COC(=O)NCC(=O)N(c1cccc(F)c1)C(C(=O)NC1CC(F)(F)C1)c1c(Cl)cccc1Cl (stereo not shown) [Compound 76]
IDH1 R132C
  IC50: 100 to 500 nM
IDH1 R132H
  IC50: 100 to 500 nM

## COC(=O)NCC(=O)N(c1cccc(F)c1)C(C(=O)NC1CC(F)(F)C1)c1c(F)cccc1Cl (stereo not shown) [Compound 77]
IDH1 R132C
  IC50: 500 to 1000 nM
IDH1 R132H
  IC50: 100 to 500 nM

## COC(=O)NCC(=O)N(c1cccc(F)c1)C(C(=O)NC1CC(F)(F)C1)c1c(F)cccc1F (stereo not shown) [Compound 78]
IDH1 R132C
  IC50: 1000 to 2000 nM
IDH1 R132H
  IC50: 500 to 1000 nM

## COC(=O)N1CCN(C)C[C@H]1C(=O)N(c1cccc(F)c1)[C@H](C(=O)NC1CC(F)(F)C1)c1ccccc1Cl [Compound 80, (S)-Methyl 2-(((S)-1-(2-chlorophenyl)-2-(3,3-difluorocyclobutylamino)-2-oxoethyl)-(3-fluorophenyl)carbamoyl)-4-methylpiperazine-1-carboxylate]
IDH1 R132C
  IC50: 100 to 500 nM
IDH1 R132H
  IC50: 100 to 500 nM

## COC(=O)N1C[C@@H](N)C[C@H]1C(=O)N(c1cccc(F)c1)[C@H](C(=O)NC1CC(F)(F)C1)c1ccccc1Cl [Compound 89]
IDH1 R132C
  IC50: 500 to 1000 nM
IDH1 R132H
  IC50: 100 to 500 nM

## COC(=O)N[C@H](C(=O)N(c1cccc(F)c1)C(C(=O)NC1CC(F)(F)C1)c1ccccc1Cl)[C@@H](C)O (stereo partly shown) [Compound 99]
IDH1 R132C
  IC50: 500 to 1000 nM
IDH1 R132H
  IC50: 500 to 1000 nM

## O=C(NC1CC(F)(F)C1)[C@H](c1ccccc1Cl)N(C(=O)[C@@H]1CCN1c1ncccn1)c1cccc(F)c1 [Compound 103]
IDH1 R132C
  IC50: 500 to 1000 nM
IDH1 R132H
  IC50: 1000 to 2000 nM

## COC(=O)N1C[C@H](OCCN(C)C)C[C@H]1C(=O)N(c1cccc(F)c1)[C@H](C(=O)NC1CC(F)(F)C1)c1ccccc1Cl [Compound 104]
IDH1 R132C
  IC50: 1000 to 2000 nM
IDH1 R132H
  IC50: 500 to 1000 nM

## O=C(NC1CC(F)(F)C1)C(c1ccccc1Cl)N(C(=O)c1ccnn1-c1ncccn1)c1cccc(F)c1 (stereo not shown) [Compound 116, N-(1-(2-chlorophenyl)-2-((3,3-difluorocyclobutyl)amino)-2-oxoethyl)-N-(3-fluorophenyl)-1-(pyrimidin-2-yl)-1H-pyrazole-5-carboxamide]
IDH1 R132C
  IC50: 100 to 500 nM
IDH1 R132H
  IC50: 500 to 1000 nM

## N#Cc1ccnc(N2c3ccccc3C[C@H]2C(=O)N(c2cc(F)cc(F)c2)C(C(=O)NC2CC(F)(F)C2)c2ccccc2Cl)c1 (stereo partly drawn) [Compound 119, (2S)—N-(1-(2-chlorophenyl)-2-((3,3-difluorocyclobutyl)amino)-2-oxoethyl)-1-(4-cyanopyridin-2-yl)-N-(3,5-difluorophenyl)indoline-2-carboxamide]
IDH1 R132H
  IC50: 100 to 500 nM
HT1080 cells
  IC50: 100 to 500 nM
